Test [1] concerns TT Cell. In words: TT cell activity test (CelltiterGlo, 72 h). Type of test: cell-based, human. The following applies: for IC50: Homo sapiens, TT cell line, 72 h, CTG; for inhibitory activity on TT cells compared with cabozantinib: comparison in words. As to the method:
2.3 Data Processing % Inhibition (inhibition rate)=100*(HC−test compound well reading)/(HC−LC) • High control (HC, reading control without inhibition): 0.5% DMSO • Low control (LC, control with compound inhibition): 1 μM CEP-32496
The IC50 values were calculated using GraphPad Prism 6 software. Y=Bottom+(Top−Bottom)/(1+10^((Log IC50−X)*HillSlope)); • X: log of cpd concentration; • Y: % inhibition; • Top and Bottom: plateaus in same units as Y; • Log IC50: same log units as X; and • HillSlope: slope factor The Cell Results are Shown in Table 5: […]
A general note: ATP-based viability assays read luminescence as a measure of living cells.

Test [2] deals with RET G810R (Homo sapiens (Human), UniProt P07949, G810R). In words: HTRF kinase activity test, RET G810R. The following applies: for IC50: HTRF KinEASE-TK; for inhibitory activity on RET G810R compared with cabozantinib and selpercatinib (LOXO-292): comparison in words. It counts as biochemical. On the technique in general: In TR-FRET formats the signal depends on donor and acceptor labels being close together.
Chain of RET G810R (P07949 29-1114 G810R): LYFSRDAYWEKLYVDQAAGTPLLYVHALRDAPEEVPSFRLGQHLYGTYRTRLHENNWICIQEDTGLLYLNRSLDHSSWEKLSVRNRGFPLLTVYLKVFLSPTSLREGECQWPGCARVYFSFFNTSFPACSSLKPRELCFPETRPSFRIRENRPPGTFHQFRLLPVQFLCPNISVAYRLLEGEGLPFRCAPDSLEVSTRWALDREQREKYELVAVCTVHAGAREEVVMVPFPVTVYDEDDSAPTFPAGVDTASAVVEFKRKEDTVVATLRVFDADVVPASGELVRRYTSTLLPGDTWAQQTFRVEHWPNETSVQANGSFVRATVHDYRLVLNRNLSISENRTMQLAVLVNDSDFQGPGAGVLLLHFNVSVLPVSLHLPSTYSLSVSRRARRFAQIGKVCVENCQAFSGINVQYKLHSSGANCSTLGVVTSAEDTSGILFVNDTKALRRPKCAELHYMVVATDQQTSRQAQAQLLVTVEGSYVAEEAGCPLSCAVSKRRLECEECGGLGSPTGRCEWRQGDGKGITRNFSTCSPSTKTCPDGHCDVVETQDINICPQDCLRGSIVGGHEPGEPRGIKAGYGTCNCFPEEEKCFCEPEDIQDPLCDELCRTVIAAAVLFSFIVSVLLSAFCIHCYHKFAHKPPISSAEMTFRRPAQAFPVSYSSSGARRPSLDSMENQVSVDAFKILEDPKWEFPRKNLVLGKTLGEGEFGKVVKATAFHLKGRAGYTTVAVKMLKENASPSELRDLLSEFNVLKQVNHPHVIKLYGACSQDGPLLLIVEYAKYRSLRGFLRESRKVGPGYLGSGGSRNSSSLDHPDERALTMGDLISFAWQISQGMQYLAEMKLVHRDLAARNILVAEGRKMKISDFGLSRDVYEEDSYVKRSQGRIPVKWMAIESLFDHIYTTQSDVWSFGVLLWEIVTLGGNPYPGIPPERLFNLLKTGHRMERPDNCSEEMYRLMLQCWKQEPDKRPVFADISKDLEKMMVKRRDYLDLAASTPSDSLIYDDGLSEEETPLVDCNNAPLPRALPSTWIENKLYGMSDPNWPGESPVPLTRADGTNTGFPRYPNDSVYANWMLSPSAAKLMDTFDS

Consider `COc1cc2nccc(Oc3ccc(NC(=O)C4(C(=O)Nc5ccc(F)cc5)CC4)cc3)c2cc1OC` [Cabozantinib, reference compound], for which the midpoint of inhibition in test [1], the IC50, lay at 143 nM.
`COc1ccc(CN2C3CC2CN(c2ccc(-c4cc(Br)cn5nc6[nH]ncc6c45)cn2)C3)cn1` [Compound 2]: in test [1], the IC50 (in general, the point on the concentration scale where inhibition reaches its midpoint) turned out to be 42.2 nM and the “inhibitory activity on TT cells compared with cabozantinib” value is listed as “significantly better than that of cabozantinib”.
`COc1ccc(CN2C3CC2CN(c2ccc(-c4cc(OCc5ccccc5)cn5nc6[nH]ncc6c45)cn2)C3)cn1` [Compound 3, 6-(benzyloxy)-4-(6-(6-((6-methoxypyridin-3-yl)methyl)-3,6-diazabicyclo[3.3.1]heptan-3-yl)pyridin-3-yl)-1H-pyrazolo[3′,4′:3,4]pyrazolo[1,5-a]pyridine]: in test [2], the IC50 was determined as 16.2 nM; the “inhibitory activity on RET G810R compared with cabozantinib and selpercatinib (LOXO-292)” value was “significantly better than that of cabozantinib and selpercatinib (LOXO-292)”. In addition, in test [1], the IC50 was found to be 32.8 nM and the “inhibitory activity on TT cells compared with cabozantinib” value is “significantly better than that of cabozantinib”.
On to `COc1ccc(CN2C3CC2CN(c2ccc(-c4cc(C#N)cn5nc6[nH]ncc6c45)cn2)C3)cn1` [Compound 5, 4-(6-(6-((6-methoxypyridin-3-yl)methyl)-3,6-diazabicyclo[3.3.1]heptan-3-yl)pyridin-3-yl)-1H-pyrazolo[3′,4′:3,4]pyrazolo[1,5-a]pyridine-6-carbonitrile], for which, in test [2], the IC50 came to 38.4 nM; the “inhibitory activity on RET G810R compared with cabozantinib and selpercatinib (LOXO-292)” value was “significantly better than that of cabozantinib and selpercatinib (LOXO-292)”. For the same molecule, in test [1], the IC50 came to 11.8 nM and the “inhibitory activity on TT cells compared with cabozantinib” value is listed as “significantly better than that of cabozantinib”.
For `COc1ccc(CN2C3CC2CN(c2ccc(-c4cc(N)cn5nc6[nH]ncc6c45)cn2)C3)cn1` [Compound 6, 4-(6-(6-((6-methoxypyridin-3-yl)methyl)-3,6-diazabicyclo[3.3.1]heptan-3-yl)pyridin-3-yl)-1H-pyrazolo[3′,4′:3,4]pyrazolo[1,5-a]pyridin-6-amine], in test [1], half-maximal inhibition (IC50) required 19.4 nM and the “inhibitory activity on TT cells compared with cabozantinib” value is given as “significantly better than that of cabozantinib”.
On the same counts, the results for `COc1ccc(CN2C3CC2CN(c2ccc(-c4cc(OCC(C)(C)O)cn5nc6[nH]ncc6c45)cn2)C3)cn1` [Compound 8, 1-((4-(6-(6-((6-methoxypyridin-3-yl)methyl)-3,6-diazabicyclo[3.3.1]heptan-3-yl)pyridin-3-yl)-1H-pyrazolo[3′,4′:3,4]pyrazolo[1,5-a]pyridin-6-yl)oxy)-2-methylpropan-2-ol] are 14.4 nM and “significantly better than that of cabozantinib”.
Turning to `COc1ccc(CN2C3CC2CN(c2ccc(-c4cc(OCCO)cn5nc6[nH]ncc6c45)cn2)C3)cn1` [Compound 10], in test [2], the IC50 came to 3.8 nM; the “inhibitory activity on RET G810R compared with cabozantinib and selpercatinib (LOXO-292)” value is “significantly better than that of cabozantinib and selpercatinib (LOXO-292)”. Further, in test [1], it took 12.3 nM to reach half-maximal inhibition (IC50) and the “inhibitory activity on TT cells compared with cabozantinib” value was “significantly better than that of cabozantinib”.
In the case of `CCCCOc1cc(-c2ccc(N3CC4CC(C3)N4Cc3ccc(OC)nc3)nc2)c2c3cn[nH]c3nn2c1` [Compound 11], in test [2], the IC50 stood at 10.1 nM; the “inhibitory activity on RET G810R compared with cabozantinib and selpercatinib (LOXO-292)” value is “significantly better than that of cabozantinib and selpercatinib (LOXO-292)”. Moreover, in test [1], the midpoint of inhibition, the IC50, lay at 16.8 nM and the “inhibitory activity on TT cells compared with cabozantinib” value is “significantly better than that of cabozantinib”.
On to `COc1ccc(CN2C3CC2CN(c2ccc(-c4cc(OCCCCF)cn5nc6[nH]ncc6c45)cn2)C3)cn1` [Compound 13], for which, in test [2], the IC50 worked out at 3.1 nM; the “inhibitory activity on RET G810R compared with cabozantinib and selpercatinib (LOXO-292)” value is “significantly better than that of cabozantinib and selpercatinib (LOXO-292)”. Also, in test [1], the concentration for half-maximal inhibition (IC50) came to 10.7 nM and the “inhibitory activity on TT cells compared with cabozantinib” value is on record as “significantly better than that of cabozantinib”.
In the case of `COc1ccc(CN2C3CC2CN(c2ccc(-c4cc(OCCCl)cn5nc6[nH]ncc6c45)cn2)C3)cn1` [Compound 14, 6-(2-chloroethoxy)-4-(6-(6-((6-methoxypyridin-3-yl)methyl)-3,6-diazabicyclo[3.3.1]heptan-3-yl)pyridin-3-yl)-1H-pyrazolo[3′,4′:3,4]pyrazolo[1,5-a]pyridine], in test [2], the IC50 amounted to 2.2 nM; the “inhibitory activity on RET G810R compared with cabozantinib and selpercatinib (LOXO-292)” value is “significantly better than that of cabozantinib and selpercatinib (LOXO-292)”.
In the case of `COc1ccc(CN2C3CC2CN(c2ccc(-c4cc(OCCBr)cn5nc6[nH]ncc6c45)cn2)C3)cn1` [Compound 15, 6-(2-bromoethoxy)-4-(6-(6-((6-methoxypyridin-3-yl)methyl)-3,6-diazabicyclo[3.3.1]heptan-3-yl)pyridin-3-yl)-1H-pyrazolo[3′,4′:3,4]pyrazolo[1,5-a]pyridine], in test [2], the IC50 was 7.9 nM; the “inhibitory activity on RET G810R compared with cabozantinib and selpercatinib (LOXO-292)” value is “significantly better than that of cabozantinib and selpercatinib (LOXO-292)”.
Regarding `COc1ccc(CN2C3CC2CN(c2ccc(-c4cc(OC[C@@H]5CNCCO5)cn5nc6[nH]ncc6c45)cn2)C3)cn1` [Compound 17], half-maximal inhibition in test [1] (IC50) required 11.3 nM.
With `COc1ccc(CN2C3CC2CN(c2ccc(-c4cc(OCCOCC5CC5)cn5nc6[nH]ncc6c45)cn2)C3)cn1` [Compound 28, 6-(2-(cyclopropylmethoxy)ethoxy)-4-(6-(6-((6-methoxypyridin-3-yl)methyl)-3,6-diazabicyclo[3.3.1]heptan-3-yl)pyridin-3-yl)-1H-pyrazolo[3′,4′:3,4]pyrazolo[1,5-a]pyridine], in test [1], the midpoint of inhibition, the IC50, lay at 64.3 nM and the “inhibitory activity on TT cells compared with cabozantinib” value is “significantly better than that of cabozantinib”.
`COc1ccc(CN2C3CC2CN(c2ccc(-c4cc(OC(C)C)cn5nc6[nH]ncc6c45)cn2)C3)cn1` [Compound 29]: in test [1], the IC50 was determined as 60.8 nM and the “inhibitory activity on TT cells compared with cabozantinib” value is “significantly better than that of cabozantinib”.
As to `COc1ccc(CN2C3CC2CN(c2ccc(-c4cc(OC(F)F)cn5nc6[nH]ncc6c45)cn2)C3)cn1` [Compound 33, 6-(difluoromethoxy)-4-(6-(6-((6-methoxypyridin-3-yl)methyl)-3,6-diazabicyclo[3.3.1]heptan-3-yl)pyridin-3-yl)-1H-pyrazolo[3′,4′:3,4]pyrazolo[1,5-a]pyridine], half-maximal inhibition in test [1] (IC50) was put at 350 nM. That is a sub-micromolar value.
For the molecule `COc1ccc(CN2C3CC2CN(c2ccc(-c4cc(OCCOC5CC5)cn5nc6[nH]ncc6c45)cn2)C3)cn1` [Compound 34], in test [1], inhibition was half-maximal at 81.8 nM (IC50) and the “inhibitory activity on TT cells compared with cabozantinib” value was “significantly better than that of cabozantinib”.
Consider `CCOc1cc(-c2ccc(N3CC4CC(C3)N4Cc3ccc(OC)nc3)nc2)c2c3c(C)n[nH]c3nn2c1` [Compound 35], for which half-maximal inhibition in test [1] (IC50) required 296 nM.
As to `COc1ccc(CN2C3CC2CN(c2ccc(-c4cc(OCC5CC5)cn5nc6[nH]ncc6c45)cn2)C3)cn1` [Compound 37, 6-(cyclopropylmethoxy)-4-(6-(6-((6-methoxypyridin-3-yl)methyl)-3,6-diazabicyclo[3.3.1]heptan-3-yl)pyridin-3-yl)-1H-pyrazolo[3′,4′:3,4]pyrazolo[1,5-a]pyridine], in test [1], the IC50 is 29.2 nM and the “inhibitory activity on TT cells compared with cabozantinib” value is on record as “significantly better than that of cabozantinib”.

The values above are taken from patent US12338253B2, “Nitrogen-containing polycyclic fused ring compound, pharmaceutical composition thereof, preparation method therefor and use thereof” (APPLIED PHARMACEUTICAL SCIENCE, INC., priority 2019, dated 2025).
